Consider 27 molecules from patent US9873709B2 (priority 2013, dated 2018).

As usually defined, the IC50 is the point on the concentration scale where inhibition reaches its midpoint.

SMILES strings stand for the structures. Where a name gives a salt, the structure may show the parent alone.

The test deals with JAK1-dependent STAT6 phosphorylation downstream of IL-13 stimulation in TF-1 human erythroleukemia cells. Briefly: cells. Conditions: TF-1, read-out: IL-13-pSTAT6 IC50.
For `O=C(c1ccc(Nc2nc3c(N4CCC(O)(c5ccc(Cl)cc5)CC4)cccn3n2)cc1)N1CCOC2(CCNCC2)C1` [Example 1-231, [4-[[8-[4-(4-chlorophenyl)-4-hydroxy-1-piperidyl]-[1,2,4]triazolo[1,5-a]pyridin-2-yl]amino]phenyl]-(1-oxa-4,9-diazaspiro[5.5]undecan-4-yl)methanone], the IC50 amounted to 0.916 µM.

`O=C(c1ccc(Nc2nc3c(N4CCC(O)(c5ccc(Cl)cc5)CC4)cccn3n2)cc1)N1CCCC12CCCNC2` (stereo not drawn) [Example 1-233, [4-[[8-[4-(4-chlorophenyl)-4-hydroxy-1-piperidyl]-[1,2,4]triazolo[1,5-a]pyridin-2-yl]amino]phenyl]-(1,9-diazaspiro[4.5]decan-1-yl)methanone]: the IC50 worked out at 0.165 µM. The result for `O=C(c1ccc(Nc2nc3c(N4CCC(O)(c5ccc(Cl)cc5)CC4)cccn3n2)cc1)N1C[C@@H]2CCN[C@@H]2C1` [Example 1-234] reads 0.0361 µM. In the case of `O=C(c1ccc(Nc2nc3c(N4CCC(O)(c5ccc(Cl)cc5)CC4)cccn3n2)cc1)N1C[C@H]2CNC[C@H]2C1` [Example 1-235, [(3aR,6aS)-2,3,3a,4,6,6a-hexahydro-1H-pyrrolo[3,4-c]pyrrol-5-yl]-[4-[[8-[4-(4-chlorophenyl)-4-hydroxy-1-piperidyl]-[1,2,4]triazolo[1,5-a]pyridin-2-yl]amino]phenyl] methanone] it was 0.31 µM; in that of `O=C(N[C@H]1[C@@H]2CNC[C@@H]21)c1ccc(Nc2nc3c(N4CCC(O)(c5ccc(Cl)cc5)CC4)cccn3n2)cc1` [Example 1-238, N-[(1R,5S)-3-azabicyclo[3.1.0]hexan-6-yl]-4-[[8-[4-(4-chlorophenyl)-4-hydroxy-1-piperidyl]-[1,2,4]triazolo[1,5-a]pyridin-2-yl]amino]benzamide], 0.18 µM. In the case of `O=C(c1ccc(Nc2nc3c(N4CCC(O)(c5ccc(Cl)cc5)CC4)cccn3n2)cc1)N1CC[C@H]2CNC[C@H]21` [Example 1-241, [(3aS,6aS)-3,3a,4,5,6,6a-hexahydro-2H-pyrrolo[2,3-c]pyrrol-1-yl]-[4-[[8-[4-(4-chlorophenyl)-4-hydroxy-1-piperidyl]-[1,2,4]triazolo[1,5-a]pyridin-2-yl]amino]phenyl] methanone] it was 0.115 µM; in that of `CN1CCC(N(C)C(=O)c2ccc(Nc3nc4c(N5CCC(C)(c6ccc(Cl)cc6)CC5)cccn4n3)cc2)CC1` [Example 1-262, 4-[[8-[4-(4-chlorophenyl)-4-methyl-1-piperidyl]-[1,2,4]triazolo[1,5-a]pyridin-2-yl]amino]-N-methyl-N-(1-methyl-4-piperidyl)benzamide], 0.12 µM. For `CN1CCC(N(C)C(=O)c2ccc(Nc3nc4c(N5CCC(CC#N)(c6ccc(Cl)c(F)c6)CC5)cccn4n3)cc2)CC1` [Example 1-263, 4-[[8-[4-(4-chloro-3-fluoro-phenyl)-4-(cyanomethyl)-1-piperidyl]-[1,2,4]triazolo[1,5-a]pyridin-2-yl]amino]-N-methyl-N-(1-methyl-4-piperidyl)benzamide], the IC50 amounted to 0.0182 µM. The result for `CNC(=O)CC1(c2ccc(Cl)cc2)CCN(c2cccn3nc(Nc4ccc(C(=O)N(C)C5CCN(C)CC5)cc4)nc23)CC1` [Example 1-299, 4-[[8-[4-(4-chlorophenyl)-4-[2-(methylamino)-2-oxo-ethyl]-1-piperidyl]-[1,2,4]triazolo[1,5-a]pyridin-2-yl]amino]-N-methyl-N-(1-methyl-4-piperidyl)benzamide] reads 0.0557 µM; that for `CN1CCC(N(C)C(=O)c2ccc(Nc3nc4c(N5CCC(CC(=O)O)(c6ccc(Cl)cc6)CC5)cccn4n3)cc2)CC1` [Example 1-301, 2-[4-(4-chlorophenyl)-1-[2-[4-[methyl-(1-methyl-4-piperidyl)carbamoyl]anilino]-[1,2,4]triazolo[1,5-a]pyridin-8-yl]-4-piperidyl]acetic acid], 0.179 µM. The result for `CCOC(=O)N1CC=C(c2cccn3nc(Nc4ccc(C(=O)N(C)C5CCN(C)CC5)cc4)nc23)CC1` [Example 2-1, ethyl 4-[2-[4-[methyl-(1-methyl-4-piperidyl)carbamoyl]anilino]-[1,2,4]triazolo[1,5-a]pyridin-8-yl]-3,6-dihydro-2H-pyridine-1-carboxylate] reads 0.0237 µM.

Regarding `CN1CCC(N(C)C(=O)c2ccc(Nc3nc4c(C5=CCN(C(=O)OC6CC6)CC5)cccn4n3)cc2)CC1` [Example 2-2, cyclopropyl 4-[2-[4-[methyl-(1-methyl-4-piperidyl)carbamoyl]anilino]-[1,2,4]triazolo[1,5-a]pyridin-8-yl]-3,6-dihydro-2H-pyridine-1-carboxylate], the concentration for half-maximal inhibition (IC50) amounted to 0.034 µM. Take `CN1CCC(N(C)C(=O)c2ccc(Nc3nc4c(C5=CCN(C(=O)CC(C)(C)O)CC5)cccn4n3)cc2)CC1` [Example 2-3, 4-[[8-[1-(3-hydroxy-3-methyl-butanoyl)-3,6-dihydro-2H-pyridin-4-yl]-[1,2,4]triazolo[1,5-a]pyridin-2-yl]amino]-N-methyl-N-(1-methyl-4-piperidyl)benzamide]: the IC50 is 0.163 µM. The result for `CN1CCC(N(C)C(=O)c2ccc(Nc3nc4c(C5=CCN(C(=O)N6CC(C#N)C6)CC5)cccn4n3)cc2)CC1` [Example 2-5, 4-[[8-[1-(3-cyanoazetidine-1-carbonyl)-3,6-dihydro-2H-pyridin-4-yl]-[1,2,4]triazolo[1,5-a]pyridin-2-yl]amino]-N-methyl-N-(1-methyl-4-piperidyl)benzamide] reads 1.09 µM. In the case of `CN1CCC(N(C)C(=O)c2ccc(Nc3nc4c(C5=CCN(C(=O)OCC#N)CC5)cccn4n3)cc2)CC1` [Example 2-7, cyanomethyl 4-[2-[4-[methyl-(1-methyl-4-piperidyl)carbamoyl]anilino]-[1,2,4]triazolo[1,5-a]pyridin-8-yl]-3,6-dihydro-2H-pyridine-1-carboxylate], the IC50 is 0.0429 µM. With `CN1CCC(N(C)C(=O)c2ccc(Nc3nc4c(C5=CCN(Cc6ccccc6)CC5)cccn4n3)cc2)CC1` [Example 2-8, 4-[[8-(1-benzyl-3,6-dihydro-2H-pyridin-4-yl)-[1,2,4]triazolo[1,5-a]pyridin-2-yl]amino]-N-methyl-N-(1-methyl-4-piperidyl)benzamide; hydrochloride], the IC50 is 0.849 µM. The result for `CN1CCC(N(C)C(=O)c2ccc(Nc3nc4c(C5=CCN(C(=O)CCO)CC5)cccn4n3)cc2)CC1` [Example 2-9, 4-[[8-[1-(3-hydroxypropanoyl)-3,6-dihydro-2H-pyridin-4-yl]-[1,2,4]triazolo[1,5-a]pyridin-2-yl]amino]-N-methyl-N-(1-methyl-4-piperidyl)benzamide] reads 0.62 µM; that for `CCOC(=O)N1CC=C(c2cccn3nc(Nc4ccc(C(=O)NCC(C)(C)N5CCOCC5)cc4)nc23)CC1` [Example 2-11, ethyl 4-[2-[4-[(2-methyl-2-morpholino-propyl)carbamoyl]anilino]-[1,2,4]triazolo[1,5-a]pyridin-8-yl]-3,6-dihydro-2H-pyridine-1-carboxylate], 0.0067 µM.

Consider `CCOC(=O)N1CC=C(c2cccn3nc(Nc4ccc(C(=O)NCCC5CCNCC5)cc4)nc23)CC1` [Example 2-13, ethyl 4-[2-[4-[2-(4-piperidyl)ethylcarbamoyl]anilino]-[1,2,4]triazolo[1,5-a]pyridin-8-yl]-3,6-dihydro-2H-pyridine-1-carboxylate], for which the IC50 was 0.338 µM. In the case of `CCOC(=O)N1CC=C(c2cccn3nc(Nc4ccc(C(=O)N5CCCC5c5ccncc5)cc4)nc23)CC1` (stereo not drawn) [Example 2-15, ethyl 4-[2-[4-[2-(4-pyridyl)pyrrolidine-1-carbonyl]anilino]-[1,2,4]triazolo[1,5-a]pyridin-8-yl]-3,6-dihydro-2H-pyridine-1-carboxylate] it was 0.0171 µM; in that of `CCOC(=O)N1CC=C(c2cccn3nc(Nc4ccc(C(=O)N5CCN(c6cccnc6)CC5)cc4)nc23)CC1` [Example 2-19, ethyl 4-[2-[4-[4-(3-pyridyl)piperazine-1-carbonyl]anilino]-[1,2,4]triazolo[1,5-a]pyridin-8-yl]-3,6-dihydro-2H-pyridine-1-carboxylate], 0.0557 µM. In the case of `CCOC(=O)N1CC=C(c2cccn3nc(Nc4ccc(C(=O)N5CCN(C)CC(CO)C5)cc4)nc23)CC1` (stereo not drawn) [Example 2-20, ethyl 4-[2-[4-[6-(hydroxymethyl)-4-methyl-1,4-diazepane-1-carbonyl]anilino]-[1,2,4]triazolo[1,5-a]pyridin-8-yl]-3,6-dihydro-2H-pyridine-1-carboxylate] it was 0.256 µM. In the case of `CCOC(=O)N1CC=C(c2cccn3nc(Nc4ccc(C(=O)N5CCNCC5C)cc4)nc23)CC1` (stereo not drawn) [Example 2-24, ethyl 4-[2-[4-(2-methylpiperazine-1-carbonyl)anilino]-[1,2,4]triazolo[1,5-a]pyridin-8-yl]-3,6-dihydro-2H-pyridine-1-carboxylate] it was 0.0216 µM. As for `CCOC(=O)N1CC=C(c2cccn3nc(Nc4ccc(C(=O)NC5CC6(CCNCC6)C5)cc4)nc23)CC1` [Example 2-27, ethyl 4-[2-[4-(7-azaspiro[3.5]nonan-2-ylcarbamoyl)anilino]-[1,2,4]triazolo[1,5-a]pyridin-8-yl]-3,6-dihydro-2H-pyridine-1-carboxylate], the IC50 was found to be 0.257 µM.

Turning to `O=C(CCC(F)(F)F)N1CC=C(c2cccn3nc(Nc4ccc(C(=O)N5CCC6(CCNC6)C5)cc4)nc23)CC1` (stereo not drawn) [Example 2-28, 1-[4-[2-[4-(2,7-diazaspiro[4.4]nonane-2-carbonyl)anilino]-[1,2,4]triazolo[1,5-a]pyridin-8-yl]-3,6-dihydro-2H-pyridin-1-yl]-4,4,4-trifluoro-butan-1-one], the IC50 turned out to be 0.207 µM.

Regarding `O=C(CCC(F)(F)F)N1CC=C(c2cccn3nc(Nc4ccc(C(=O)N5CCC6(CCNCC6)CC5)cc4)nc23)CC1` [Example 2-29, 1-[4-[2-[4-(3,9-diazaspiro[5.5]undecane-3-carbonyl)anilino]-[1,2,4]triazolo[1,5-a]pyridin-8-yl]-3,6-dihydro-2H-pyridin-1-yl]-4,4,4-trifluoro-butan-1-one], the IC50 is 0.0803 µM. The result for `O=C(NCC1CNCCO1)c1ccc(Nc2nc3c(C4=CCN(C(=O)CCC(F)(F)F)CC4)cccn3n2)cc1` (stereo not drawn) [Example 2-30, N-(morpholin-2-ylmethyl)-4-[[8-[1-(4,4,4-trifluorobutanoyl)-3,6-dihydro-2H-pyridin-4-yl]-[1,2,4]triazolo[1,5-a]pyridin-2-yl]amino]benzamide] reads 0.0403 µM.
